Assay results from article PMC8591201, “Anti-Tumor Activity of AZD4547 Against NTRK1 Fusion Positive Cancer Cells Through Inhibition of NTRKs” (Frontiers in Oncology, 2021).

Experiments:
Test in all cases: cells
Set-up in all cases: Anti-proliferation, 10-point dose response, CellTiter-Glo luminescence (MTT stated for KM12(Luc)), GI50 fitted in Prism
A172 = details: Homo sapiens, A 172, 72 h, read-out: GI50 (µM) a
Method: (§1) To obtain the GI50 value of a substance, cell viability was measured using MTT (G4000, Promega, USA) for KM12(Luc) cell and Cell titer glo (G7572, Promega, USA) for other cell lines. For adherent cells, cells were seeded at 5,000 cells/well in a 96-well plate and treated with a substance one day after cell seeding. For suspension cells, 10,000 cells/well were seeded and the substance was treated after 4 h stabilization of cells. The substance was treated at 10 points of 1:3 serial dilution (0–100 µmol/L) for 72 h. For MTT assay, 15 µL dye solution was added to each well and incubated 4 h at 37°C. 100 µL of solubilization solution was added and followed 1 hr incubation. Absorbance at 570 nm of each well was recorded using EnVision microplate reader (Perkin Elmer). For Cell titer glo assay, Cell titer glo reagent was treated in each well and measured the luminescence by EnVision microplate reader (Perkin Elmer). Viable cells in each well were normalized by using 0.5% DMSO-treated wells (100%). The inhibitor dose−response curve was fitted and GI50 values were calculated using Prism 7.0 software (GraphPad). All assays were performed in duplicate and the standard deviation (SD) was determined from two independent experiments. KM12(Luc) was purchased from the JCRB cell bank. KM12 (Luc) was used within 6 months after purchase and the DNA profiles were confirmed using a short tandem repeat (STR) analysis by the Korean Cell Line Bank. KM12(Luc) cells were maintained in DMEM supplemented with 10% FBS and antibiotics. Parental Ba/F3 cells were purchased from DSMZ and were grown in RPMI1640 supplemented with 10% FBS and antibiotics in the presence of IL3, Transformed Ba/F3 cell lines were grown in the same media without IL3. Cells used in this study were negative for mycoplasma contamination. AN3-CA, HEC1A, U138, 8505C, MKN28, MKN45, A172, A375, Capan-1 HeLa, HEP3B, MCF-7 and MIA-paca-2 cells were maintained in DMEM (Welgene, Korea) supplemented with 10% FBS and antibiotics (Welgene, Korea). Otherwise, all cells were maintained in RPMI (Welgene, Korea) supplemented with 10% FBS and antibiotics (Welgene, Korea). To identify AZD4547 sensitive cell lines other than FGFR-mutant driven cancer cells, GI50 values were determined for AZD4547 against 64 different cancer cell lines, including AN3-CA used as a positive control ( Figure 1A and Table S1 ). […] Also, inhibitory activity of AZD4547 against DDR1 or FLT3 allows suppression of proliferation of U-2-OS and MV4-11 ([43]). Therefore, our attention focused on the inhibitory activity of AZD4547 against KM12(Luc) cell lines which have the TPM3-NTRK1 fusion gene. To exclude the possibility that the anti-proliferation activity of AZD4547 against KM12(Luc) is a common characteristic of FGFR inhibitors, we determined if BGJ398, a representative FGFR inhibitor, is also capable of suppressing proliferation of KM12(Luc) cells ( Figure 1B ).

HCT15 = details: Homo sapiens, HCT-15, 72 h, read-out: GI50 (µM) a
Method: as §1

HL-60 = details: Homo sapiens, HL-60, 72 h, read-out: GI50 (µM) a
Method: as §1

HTH-7 = details: KM12-Luc, 72 h, read-out: GI50 (µM) a
Method: as §1

HeLa = details: Homo sapiens, HeLa, 72 h, read-out: GI50 (µM) a
Method: as §1

KM12-Luc = details: KM12-Luc, 72 h, read-out: GI50 (µM) a
Method: as §1

MDA-MB-453 = details: Homo sapiens, MDA-MB-453, 72 h, read-out: GI50 (µM) a
Method: as §1

NCI-H2087 = details: Homo sapiens, NCI-H2087, 72 h, read-out: GI50 (µM) a
Method: as §1

NCI-H2228 = details: Homo sapiens, NCI-H2228, 72 h, read-out: GI50 (µM) a
Method: as §1

OCI-AML3 = details: Homo sapiens, OCI-AML-3, 72 h, read-out: GI50 (µM) a
Method: as §1

PANC-1 = details: Homo sapiens, PANC-1, 72 h, read-out: GI50 (µM) a
Method: as §1

U138 = details: KM12-Luc, 72 h, read-out: GI50 (µM) a
Method: as §1

SMILES: COc1cc(CCc2cc(NC(=O)c3ccc(N4C[C@@H](C)N[C@@H](C)C4)cc3)n[nH]2)cc(OC)c1 [AZD4547]
- GI50 (A172): 2.18 µM
- GI50 (HCT15): 15.8 µM
- GI50 (HL-60): 9.31 µM
- GI50 (HTH-7): 6.44 µM
- GI50 (HeLa): 4.38 µM
- GI50 (KM12-Luc): 0.11 µM
- GI50 (MDA-MB-453): 5.36 µM
- GI50 (NCI-H2087): 27.4 µM
- GI50 (NCI-H2228): 17.2 µM
- GI50 (OCI-AML3): 6.75 µM
- GI50 (PANC-1): 8.65 µM
- GI50 (U138): 8.48 µM
